The source made the active and inactive calls.
Assays:
Large T antigen = Large T antigen (Simian virus 40, UniProt P03070); type: functional, Betapolyomavirus macacae;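 note: Confirmatory-stage PubChem screen for compounds that inhibit SV40 T antigen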
[1] = molecular target: T1, Corticotropin-releasing factor receptor 2/Corticotropin-releasing factor-binding protein (Homo sapiens, UniProt P24387+Q13324); assay: Dose Response confirmation of uHTS hits for small molecule antagonists of the CRF-binding protein and CRF-R2 receptor complex.; type: functional; conditions: read-out: IC50_Mean
T1 sequence (Q13324 whole entry): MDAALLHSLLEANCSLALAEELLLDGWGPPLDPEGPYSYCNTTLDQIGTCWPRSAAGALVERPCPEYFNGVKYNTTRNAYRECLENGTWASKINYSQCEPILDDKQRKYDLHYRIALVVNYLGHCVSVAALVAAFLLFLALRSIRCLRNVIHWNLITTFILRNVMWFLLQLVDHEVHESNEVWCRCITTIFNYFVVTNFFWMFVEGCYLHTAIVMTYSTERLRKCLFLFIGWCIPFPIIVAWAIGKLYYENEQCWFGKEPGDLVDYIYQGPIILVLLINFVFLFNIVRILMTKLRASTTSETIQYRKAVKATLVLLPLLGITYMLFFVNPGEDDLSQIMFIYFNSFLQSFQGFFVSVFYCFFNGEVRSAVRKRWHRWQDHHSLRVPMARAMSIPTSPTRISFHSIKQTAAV
T1 sequence (P24387 whole entry): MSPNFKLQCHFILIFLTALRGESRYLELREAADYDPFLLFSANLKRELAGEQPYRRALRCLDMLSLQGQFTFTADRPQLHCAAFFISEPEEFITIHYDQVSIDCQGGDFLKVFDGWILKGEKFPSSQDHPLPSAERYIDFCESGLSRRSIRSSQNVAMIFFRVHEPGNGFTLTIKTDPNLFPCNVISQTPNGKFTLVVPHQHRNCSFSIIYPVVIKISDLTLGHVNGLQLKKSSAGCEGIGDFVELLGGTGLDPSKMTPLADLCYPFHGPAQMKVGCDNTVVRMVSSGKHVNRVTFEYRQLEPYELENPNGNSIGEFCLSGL

[2] = molecular target: T1, Corticotropin-releasing factor receptor 2/Corticotropin-releasing factor-binding protein; assay: activators of CRF receptor 2 with binding protein – uHTS hits, confirmation (AID 602473); type: functional; conditions: read-out: EC50_Mean
[3] = molecular target: Glyceraldehyde-3-phosphate dehydrogenase (Homo sapiens, UniProt P04406)
Glyceraldehyde-3-phosphate dehydrogenase, sequence (P04406 whole entry): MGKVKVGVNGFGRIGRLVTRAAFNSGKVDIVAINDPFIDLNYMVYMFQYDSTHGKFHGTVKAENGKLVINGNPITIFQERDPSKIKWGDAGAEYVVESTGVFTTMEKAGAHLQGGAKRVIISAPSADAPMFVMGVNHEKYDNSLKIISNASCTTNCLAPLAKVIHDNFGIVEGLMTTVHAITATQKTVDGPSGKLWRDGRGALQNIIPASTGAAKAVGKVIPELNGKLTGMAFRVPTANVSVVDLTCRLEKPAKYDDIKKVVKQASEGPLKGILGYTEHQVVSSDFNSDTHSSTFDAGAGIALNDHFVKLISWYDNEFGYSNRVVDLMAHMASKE

[4] = molecular target: Induced myeloid leukemia cell differentiation protein Mcl-1 (Homo sapiens, UniProt Q07820); type: functional
Induced myeloid leukemia cell differentiation protein Mcl-1, sequence (Q07820 whole entry): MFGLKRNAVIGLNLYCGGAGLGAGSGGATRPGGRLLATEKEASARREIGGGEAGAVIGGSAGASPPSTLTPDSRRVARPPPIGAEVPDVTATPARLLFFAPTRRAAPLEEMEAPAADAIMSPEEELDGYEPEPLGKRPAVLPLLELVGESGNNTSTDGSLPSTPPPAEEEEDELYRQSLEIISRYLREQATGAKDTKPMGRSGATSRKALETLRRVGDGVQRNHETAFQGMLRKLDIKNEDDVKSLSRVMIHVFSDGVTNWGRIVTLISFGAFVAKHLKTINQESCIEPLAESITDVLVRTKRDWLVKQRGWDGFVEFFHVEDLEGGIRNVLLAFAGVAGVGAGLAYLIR

[5] = molecular target: T2, Replicative DNA helicase DnaB (Mycobacterium tuberculosis, UniProt P9WMR3); assay: DnaB intein splicing inhibitors, dose response, biochemical, cell-free fluorescence (AID 449749); type: functional
T2 sequence (P9WMR3 whole entry): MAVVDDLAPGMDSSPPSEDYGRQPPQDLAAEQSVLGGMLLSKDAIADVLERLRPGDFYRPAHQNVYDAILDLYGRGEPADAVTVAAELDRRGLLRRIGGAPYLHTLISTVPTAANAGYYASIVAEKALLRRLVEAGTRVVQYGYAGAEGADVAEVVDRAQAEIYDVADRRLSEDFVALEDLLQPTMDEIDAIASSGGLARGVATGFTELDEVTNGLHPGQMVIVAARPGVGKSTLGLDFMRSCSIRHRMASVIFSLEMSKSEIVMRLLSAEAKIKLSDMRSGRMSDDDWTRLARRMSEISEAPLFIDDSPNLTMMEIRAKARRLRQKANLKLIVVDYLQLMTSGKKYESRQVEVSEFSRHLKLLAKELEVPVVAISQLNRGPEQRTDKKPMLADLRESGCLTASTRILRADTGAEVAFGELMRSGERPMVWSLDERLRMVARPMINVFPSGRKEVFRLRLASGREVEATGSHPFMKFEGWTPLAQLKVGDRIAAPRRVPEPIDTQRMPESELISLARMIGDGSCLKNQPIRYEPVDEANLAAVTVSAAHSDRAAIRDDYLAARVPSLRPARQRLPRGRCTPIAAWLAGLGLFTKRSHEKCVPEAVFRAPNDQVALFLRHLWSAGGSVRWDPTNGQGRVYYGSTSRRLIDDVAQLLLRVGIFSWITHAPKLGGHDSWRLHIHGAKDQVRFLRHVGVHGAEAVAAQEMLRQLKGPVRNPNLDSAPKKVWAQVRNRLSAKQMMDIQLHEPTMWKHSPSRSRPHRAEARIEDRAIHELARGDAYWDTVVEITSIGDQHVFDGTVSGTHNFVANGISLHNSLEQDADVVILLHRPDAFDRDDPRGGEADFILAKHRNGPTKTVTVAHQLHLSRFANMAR

Protein RecA = molecular target: T3, Protein RecA (Mycobacterium tuberculosis, UniProt P9WHJ3); assay: Fluorescence Cell-Free Homogeneous Dose Retest to Identify Inhibitors of RecA-Intein Splicing Activity. [Related pubchem assays (depositor defined):AID2097, AID2223, AID489010, AID492950]; type: functional
T3 sequence (P9WHJ3 whole entry): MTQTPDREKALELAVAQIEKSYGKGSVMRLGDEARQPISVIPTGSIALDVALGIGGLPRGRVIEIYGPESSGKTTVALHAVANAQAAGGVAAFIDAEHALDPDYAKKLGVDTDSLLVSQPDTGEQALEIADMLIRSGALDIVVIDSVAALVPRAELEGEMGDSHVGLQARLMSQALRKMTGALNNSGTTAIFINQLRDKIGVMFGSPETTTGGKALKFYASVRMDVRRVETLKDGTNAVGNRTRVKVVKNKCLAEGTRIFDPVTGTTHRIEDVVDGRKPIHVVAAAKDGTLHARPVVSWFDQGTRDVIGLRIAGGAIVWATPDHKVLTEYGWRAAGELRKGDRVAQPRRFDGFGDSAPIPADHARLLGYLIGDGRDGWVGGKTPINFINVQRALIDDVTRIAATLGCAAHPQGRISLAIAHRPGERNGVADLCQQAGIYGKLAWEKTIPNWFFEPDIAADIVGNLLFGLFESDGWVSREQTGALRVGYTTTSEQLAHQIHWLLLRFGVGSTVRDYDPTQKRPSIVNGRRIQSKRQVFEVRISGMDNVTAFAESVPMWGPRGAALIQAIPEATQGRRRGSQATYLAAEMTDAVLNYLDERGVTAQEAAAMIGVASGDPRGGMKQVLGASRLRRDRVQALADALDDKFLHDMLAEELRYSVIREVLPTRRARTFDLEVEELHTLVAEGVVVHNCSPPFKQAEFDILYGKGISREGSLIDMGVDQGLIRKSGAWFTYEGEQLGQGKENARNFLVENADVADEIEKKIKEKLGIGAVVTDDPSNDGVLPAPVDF

[6] = molecular target: T4, Small ubiquitin-related modifier 1 (Homo sapiens, UniProt P63165); assay: inhibitors of SUMO1 peptide binding, dose response, biochemical, fluorescence polarization, uHTS hits (AID 624382); type: functional; conditions: read-out: IC50_Mean
T4 sequence (P63165 whole entry): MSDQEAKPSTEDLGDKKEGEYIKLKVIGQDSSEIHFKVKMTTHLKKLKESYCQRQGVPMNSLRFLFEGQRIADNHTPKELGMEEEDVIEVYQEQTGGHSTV

[7] = molecular target: T4, Small ubiquitin-related modifier 1; assay: inhibitors of SUMO1 partner interactions, dose response, biochemical, FRET (AID 624383); type: functional; conditions: read-out: IC50_Mean
[8] = molecular target: T5, Histone-lysine N-methyltransferase NSD2 (Homo sapiens, UniProt O96028); type: biochemical
T5 sequence (O96028 whole entry): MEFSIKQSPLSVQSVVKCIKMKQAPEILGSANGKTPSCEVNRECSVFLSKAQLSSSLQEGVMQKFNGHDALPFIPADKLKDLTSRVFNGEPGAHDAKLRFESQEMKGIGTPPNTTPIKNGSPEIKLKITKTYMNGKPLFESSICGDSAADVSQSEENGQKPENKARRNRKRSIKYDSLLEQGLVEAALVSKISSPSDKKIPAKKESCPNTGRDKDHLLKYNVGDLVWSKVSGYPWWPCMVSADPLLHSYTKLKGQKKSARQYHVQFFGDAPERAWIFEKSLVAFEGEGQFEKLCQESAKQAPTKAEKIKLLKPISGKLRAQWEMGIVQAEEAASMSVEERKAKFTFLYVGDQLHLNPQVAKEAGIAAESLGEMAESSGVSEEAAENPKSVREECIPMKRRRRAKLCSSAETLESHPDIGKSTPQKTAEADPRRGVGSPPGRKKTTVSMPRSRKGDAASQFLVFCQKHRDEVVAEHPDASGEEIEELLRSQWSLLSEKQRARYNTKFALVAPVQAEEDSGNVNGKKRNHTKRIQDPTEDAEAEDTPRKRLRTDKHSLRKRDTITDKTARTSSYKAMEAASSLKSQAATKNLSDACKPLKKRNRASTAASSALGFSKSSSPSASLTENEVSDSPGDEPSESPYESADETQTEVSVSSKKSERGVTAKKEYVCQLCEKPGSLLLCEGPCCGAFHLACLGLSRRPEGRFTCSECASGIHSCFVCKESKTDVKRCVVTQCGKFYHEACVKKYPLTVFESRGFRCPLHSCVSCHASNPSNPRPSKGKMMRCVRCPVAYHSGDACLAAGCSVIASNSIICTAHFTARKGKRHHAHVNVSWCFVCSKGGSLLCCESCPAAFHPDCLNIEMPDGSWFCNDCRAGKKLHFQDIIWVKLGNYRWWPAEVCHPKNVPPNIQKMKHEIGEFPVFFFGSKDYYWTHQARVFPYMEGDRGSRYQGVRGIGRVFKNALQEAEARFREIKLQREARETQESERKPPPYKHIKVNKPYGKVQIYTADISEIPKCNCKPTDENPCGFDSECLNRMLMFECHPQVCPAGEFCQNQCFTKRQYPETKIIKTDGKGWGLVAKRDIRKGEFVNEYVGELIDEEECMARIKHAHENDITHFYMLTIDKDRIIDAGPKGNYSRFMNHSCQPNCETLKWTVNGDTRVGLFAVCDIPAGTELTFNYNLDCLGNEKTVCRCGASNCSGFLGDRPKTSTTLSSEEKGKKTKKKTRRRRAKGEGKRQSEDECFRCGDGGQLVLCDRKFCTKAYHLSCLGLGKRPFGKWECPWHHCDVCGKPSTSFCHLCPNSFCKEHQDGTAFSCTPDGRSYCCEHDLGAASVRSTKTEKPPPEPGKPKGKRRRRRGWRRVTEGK

[9] = molecular target: DNA dC->dU-editing enzyme APOBEC-3A (Homo sapiens, UniProt P31941); assay: Dose Response confirmation of small molecule APOBEC3A DNA Deaminase Inhibitors via a fluorescence-based single-stranded DNA deaminase assay. [Related pubchem assays (depositor defined):AID493011, AID493024]; type: functional
DNA dC->dU-editing enzyme APOBEC-3A, sequence (P31941 whole entry): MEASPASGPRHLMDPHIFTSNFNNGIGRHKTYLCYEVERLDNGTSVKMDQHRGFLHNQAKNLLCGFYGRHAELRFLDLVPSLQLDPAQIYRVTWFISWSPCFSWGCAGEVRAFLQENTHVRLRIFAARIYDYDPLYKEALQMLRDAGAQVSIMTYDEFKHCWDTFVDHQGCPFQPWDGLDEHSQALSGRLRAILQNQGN

[10] = molecular target: DNA dC->dU-editing enzyme APOBEC-3G (Homo sapiens, UniProt Q9HC16); type: functional;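 note: Dose-response counterscreen measuring inhibition of APOBEC3G DNA deaminase activity, run while confirming APOBEC3A inhibitors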
DNA dC->dU-editing enzyme APOBEC-3G, sequence (Q9HC16 whole entry): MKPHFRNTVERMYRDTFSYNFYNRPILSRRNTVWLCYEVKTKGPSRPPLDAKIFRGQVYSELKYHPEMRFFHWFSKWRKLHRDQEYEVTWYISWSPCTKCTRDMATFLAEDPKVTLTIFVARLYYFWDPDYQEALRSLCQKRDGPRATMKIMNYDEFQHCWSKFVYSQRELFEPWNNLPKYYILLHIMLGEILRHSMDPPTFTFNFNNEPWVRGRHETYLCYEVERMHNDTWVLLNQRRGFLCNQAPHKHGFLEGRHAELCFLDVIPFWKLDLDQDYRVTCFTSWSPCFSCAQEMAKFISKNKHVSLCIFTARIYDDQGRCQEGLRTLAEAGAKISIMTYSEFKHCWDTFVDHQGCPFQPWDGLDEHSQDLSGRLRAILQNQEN

BJ [11] = assay: cytotoxicity toward BJ-TERT fibroblasts, dose response, cell-based, RAS-independent, luminescence (AID 1933); type: functional; conditions: Homo sapiens
BJ [12] = assay: cells; type: functional, cell-based; conditions: Homo sapiens
BJ [13] = assay: cytotoxicity toward BJ-TERT-LT-ST fibroblasts, dose response, cell-based, RAS-independent, luminescence (AID 1935); type: functional; conditions: Homo sapiens;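 note: BJ fibroblasts immortalized with TERT plus LT and ST oncogenes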
[14] = cytotoxicity toward DRD oncogenic fibroblasts, dose response, cell-based, non-viral oncogenic, luminescence (AID 1934); type: functional; conditions: Homo sapiens
[15] = cytotoxicity in HEK-293T cells, dose response, cytotoxicity control for TCR NF-kB inhibitor project, luminescence, T-cell screen hits (AID 489026); type: functional, cell-based;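 note: cells exposed to compound about 14 hours before the viability readout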
[16] = molecular target: T6, Heat shock factor protein 1 (Mus musculus, UniProt P38532); assay: inhibition of MG132-induced HSE-luciferase signal, confirmation, cell-based, NIH3T3, luminescence, dose retest (AID 2382); type: functional;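 note: NIH3T3 fibroblasts with HSF1-driven luciferase reporter stressed by proteasome inhibitor MG132; luminescence from HSF1-driven luciferase expression after 8 hours of MG132 stress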
T6 sequence (P38532 whole entry): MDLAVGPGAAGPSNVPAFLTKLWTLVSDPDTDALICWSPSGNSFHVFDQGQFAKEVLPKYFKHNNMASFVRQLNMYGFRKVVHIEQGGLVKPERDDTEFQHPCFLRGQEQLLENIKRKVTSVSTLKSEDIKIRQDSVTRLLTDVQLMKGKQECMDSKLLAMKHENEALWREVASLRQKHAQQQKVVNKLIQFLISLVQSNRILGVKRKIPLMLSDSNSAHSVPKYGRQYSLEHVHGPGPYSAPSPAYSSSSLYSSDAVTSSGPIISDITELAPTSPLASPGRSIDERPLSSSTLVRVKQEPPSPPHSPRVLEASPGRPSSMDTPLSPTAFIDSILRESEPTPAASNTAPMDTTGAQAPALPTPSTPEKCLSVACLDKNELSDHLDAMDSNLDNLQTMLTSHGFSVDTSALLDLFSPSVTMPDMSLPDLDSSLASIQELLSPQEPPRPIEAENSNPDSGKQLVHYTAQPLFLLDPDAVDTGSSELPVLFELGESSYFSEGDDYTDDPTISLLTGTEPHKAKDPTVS

[17] = LGR2 antagonists, dose response, cell-based, HEK293, CRE-luciferase reporter, cherry pick, set 2 (AID 743343); type: functional;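 note: transfected cells were stimulated with diluted bursicon conditioned medium after compound addition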
[18] = MC4R antagonists, dose response, counter-screen for LGR2 antagonist project, cell-based, plate reader, cherry pick (AID 743444); type: functional;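 note: transfected HEK 293 cells stimulated with alpha-MSH peptide; potency of inhibitors of the alpha-MSH evoked signal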

Large T antigen, sequence (P03070 whole entry): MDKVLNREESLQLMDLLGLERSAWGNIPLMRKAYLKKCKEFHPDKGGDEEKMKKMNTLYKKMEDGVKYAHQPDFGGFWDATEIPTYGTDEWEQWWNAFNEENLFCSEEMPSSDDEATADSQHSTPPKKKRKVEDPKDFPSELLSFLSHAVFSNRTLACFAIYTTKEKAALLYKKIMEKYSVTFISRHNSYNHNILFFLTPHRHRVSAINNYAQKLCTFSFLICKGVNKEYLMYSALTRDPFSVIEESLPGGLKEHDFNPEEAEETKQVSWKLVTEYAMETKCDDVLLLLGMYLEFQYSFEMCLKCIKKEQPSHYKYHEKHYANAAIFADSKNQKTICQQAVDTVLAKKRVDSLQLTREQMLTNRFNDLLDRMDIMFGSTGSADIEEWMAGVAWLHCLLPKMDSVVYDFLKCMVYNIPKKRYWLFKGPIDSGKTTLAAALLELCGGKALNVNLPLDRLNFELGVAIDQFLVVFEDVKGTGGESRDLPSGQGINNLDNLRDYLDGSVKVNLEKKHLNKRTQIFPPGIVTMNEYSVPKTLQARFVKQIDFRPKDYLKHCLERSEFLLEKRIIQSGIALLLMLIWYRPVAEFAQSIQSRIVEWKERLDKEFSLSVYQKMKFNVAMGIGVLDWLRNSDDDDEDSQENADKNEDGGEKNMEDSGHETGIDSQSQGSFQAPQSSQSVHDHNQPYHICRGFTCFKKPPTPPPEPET

CN(C)c1ccc(NC(=O)COC(=O)Cn2nnc3ccccc32)cc1
IC50 (Large T antigen): 6.63 µM (active)
IC50 [1]: > 47.1 µM (inactive)
EC50 [2]: > 53 µM (inactive)

O=C(c1cc(-c2ccc(Cl)cc2Cl)n[nH]1)N(CCO)CCO
IC50 [3]: > 10 µM (inconclusive)

CN1C(=O)/C(=C/c2ccc(-c3ccccc3[N+](=O)[O-])o2)S/C1=N\c1ccc(Cl)c(C(=O)O)c1
IC50 (Large T antigen): 52.8 µM (active)
IC50 [4]: 14 µM (active)
AC50 [5]: 10.6 µM (active)
EC50 (Protein RecA): 5.51 µM (active)
IC50 [6]: > 66.6 µM (inactive)
IC50 [7]: 17.7 µM (active)
AC50 [8]: 4.58 µM (active)

CC(=Nc1cc(C)cc(C)c1)N(C)CCNS(=O)(=O)c1ccc(Cl)cc1
IC50 [9]: 2.67 µM (active)
IC50 [10]: 4.92 µM (active)

O=C(O)Cc1ccc(S(=O)(=O)N2CCCC2)s1
IC50 [9]: 17.4 µM (active)
IC50 [10]: 66.5 µM (active)

COc1cc(C)c(NC(=O)C2CCN(S(=O)(=O)c3cccs3)CC2)cc1OC
IC50 [9]: 12 µM (active)
IC50 [10]: 13.9 µM (active)

COc1ccc2c(/C=C/c3cc[n+](C)cc3)c[nH]c2c1
IC50 [9]: 6.12 µM (active)
IC50 [10]: 6.31 µM (active)

CCCc1nc2sc3c(SCC(=O)NCc4ccco4)ncnc3c2c2c1CCC2
IC50 [9]: 15.8 µM (active)
IC50 [10]: 25.3 µM (active)

CCc1cc2c(s1)N1Cc3ccccc3C(C(=O)c3cccc([N+](=O)[O-])c3)=C1NC2=O
EC50 (BJ [11]): > 150 µM (not active)
EC50 (BJ [12]): > 150 µM (not active)
EC50 (BJ [13]): > 150 µM (inconclusive)
EC50 [14]: > 150 µM (not active)
IC50 [15]: > 80 µM (inactive)

COc1cccc(/C=N/c2ccc(N3CCOCC3)cc2)c1O
IC50 (Large T antigen): 4.14 µM (active)

CC(C)(C)c1ccc(C(=O)NCCOc2ccccc2F)cc1
EC50 [16]: < 0.16 µM (active)
AC50 [17]: 5.41 µM (active)
AC50 [18]: 4.25 µM (active)
